For 19 molecules, IC50 results are on record in US8853230B2, “Inhibitors of JAK” (Portola Pharmaceuticals, Inc., priority 2009, dated 2014).

The structures appear in SMILES notation.

Assay type in all cases: biochemical
For one test, the target named is T1, JAK3 (Homo sapiens, UniProt P52333).
T1 construct: 5 μl of catalytic domain recombinant Kinase enzyme+Tyr peptide substrate (Invitrogen, Calif.); purchased Invitrogen
The experiment in a line: Z'-LYTE kinase assay, JAK3 tyrosine phosphorylation activity. Summed up: (§1)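 Z'-LYTE format using the Tyr6 peptide with recombinant catalytic-domain kinase; 1 h kinase reaction and 1 h development, both at room temperature. IC50s derived from ratiometric FRET signal.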

Another test addresses T2, TYK2 (Homo sapiens, UniProt P29597).
T2 construct: 5 μl of catalytic domain recombinant Kinase enzyme+Tyr peptide substrate (Invitrogen, Calif.); purchased Invitrogen
T2 sequence (P29597 897-1176 limits assumed): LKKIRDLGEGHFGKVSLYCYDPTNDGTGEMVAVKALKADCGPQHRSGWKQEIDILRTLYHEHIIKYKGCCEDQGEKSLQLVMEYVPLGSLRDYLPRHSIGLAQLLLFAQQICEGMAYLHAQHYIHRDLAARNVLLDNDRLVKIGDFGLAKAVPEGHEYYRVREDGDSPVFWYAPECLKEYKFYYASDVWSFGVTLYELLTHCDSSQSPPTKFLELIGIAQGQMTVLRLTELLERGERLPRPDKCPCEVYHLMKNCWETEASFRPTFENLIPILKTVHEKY
As to the kind of experiment: Z'-LYTE kinase assay, TYK2 tyrosine phosphorylation activity. Summed up:
as §1

Another test addresses T3, JAK1 (Homo sapiens, UniProt P23458).
T3 construct: 5 μl of catalytic domain recombinant Kinase enzyme+Tyr peptide substrate (Invitrogen, Calif.); purchased Invitrogen
As to the kind of experiment: Z'-LYTE kinase assay, JAK1 tyrosine phosphorylation activity. Conditions: read-out: JAK 1 IC50. Summed up: as §1

The next test has as its target T4, JAK2 (Homo sapiens, UniProt O60674).
T4 construct: 5 μl of catalytic domain recombinant Kinase enzyme+Tyr peptide substrate (Invitrogen, Calif.); purchased Invitrogen
The experiment in a line: Z'-LYTE kinase assay, JAK2 tyrosine phosphorylation activity. Summed up: as §1

T4 sequence (O60674 849-1124 limits assumed): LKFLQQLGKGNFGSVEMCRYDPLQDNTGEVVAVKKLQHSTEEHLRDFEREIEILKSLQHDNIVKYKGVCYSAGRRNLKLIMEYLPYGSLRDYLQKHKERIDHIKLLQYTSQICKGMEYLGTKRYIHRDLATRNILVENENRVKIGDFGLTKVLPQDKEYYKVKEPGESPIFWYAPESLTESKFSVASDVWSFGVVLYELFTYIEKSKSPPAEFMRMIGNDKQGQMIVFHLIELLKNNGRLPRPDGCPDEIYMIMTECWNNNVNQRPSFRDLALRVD
T3 sequence (P23458 875-1153 limits assumed): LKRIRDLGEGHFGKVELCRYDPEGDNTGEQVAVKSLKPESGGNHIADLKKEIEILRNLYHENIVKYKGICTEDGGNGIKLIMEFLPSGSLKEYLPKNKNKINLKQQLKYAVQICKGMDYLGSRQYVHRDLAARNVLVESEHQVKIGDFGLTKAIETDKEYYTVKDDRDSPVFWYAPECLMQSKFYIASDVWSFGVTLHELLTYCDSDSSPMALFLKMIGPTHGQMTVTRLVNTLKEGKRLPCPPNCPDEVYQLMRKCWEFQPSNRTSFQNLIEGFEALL
T1 sequence (P52333 822-1111 limits assumed): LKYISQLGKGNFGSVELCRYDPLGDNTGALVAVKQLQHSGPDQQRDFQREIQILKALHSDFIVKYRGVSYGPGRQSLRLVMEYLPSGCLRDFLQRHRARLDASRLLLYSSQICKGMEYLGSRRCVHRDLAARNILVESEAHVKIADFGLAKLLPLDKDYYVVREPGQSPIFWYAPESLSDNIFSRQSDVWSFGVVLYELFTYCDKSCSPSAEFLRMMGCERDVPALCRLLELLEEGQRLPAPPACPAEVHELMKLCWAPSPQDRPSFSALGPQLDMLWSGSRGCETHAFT

`COCC(=O)N(c1cccc(Nc2ncc(C(N)=O)c(NCc3ccccc3)n2)c1)C1CC1` [Example 150, 4-(benzylamino)-2-(3-(N-cyclopropyl-2-methoxyacetamido)phenylamino)pyrimidine-5-carboxamide]: the 50% inhibitory concentration (IC50) is 100 to 1000 nM at JAK3, 100 to 1000 nM against TYK2, more than 1000 nM on JAK1 and more than 1000 nM on JAK2.

On to `CCNc1nc(Nc2cccc(NC(=O)N3CCCC3)c2)ncc1C(N)=O` [Example 134, 4-(ethylamino)-2-(3-(pyrrolidine-1-carboxamido)phenylamino)pyrimidine-5-carboxamide], for which the half-maximal inhibitory concentration (IC50) against JAK3 fell in the range of 1 to 10 nM; against TYK2, 10 to 100 nM; at JAK1, 10 to 100 nM; against JAK2 it was 10 to 100 nM.

In the case of `CC(=O)Nc1cccc(Nc2ncc(C(N)=O)c(NCc3cccc(F)c3)n2)c1` [Example 94, 2-(3-acetamidophenylamino)-4-(3-fluorobenzylamino)pyrimidine-5-carboxamide], the IC50 lay in the range of 1 to 10 nM on JAK3, 10 to 100 nM at TYK2, 10 to 100 nM at JAK1 and 10 to 100 nM on JAK2.

On to `CNC(=O)Nc1cc(Nc2ncc(C(N)=O)c(NCC3CC3)n2)ccc1Cl` [Example 178, 2-(4-chloro-3-(3-methylureido)phenylamino)-4-(cyclopropylmethylamino)pyrimidine-5-carboxamide], for which the 50% inhibitory concentration (IC50) against JAK3 fell in the range of 10 to 100 nM; against TYK2, 10 to 100 nM; on JAK1 it was 100 to 1000 nM; against JAK2 it was 10 to 100 nM.

Turning to `COCC(=O)Nc1cc(Nc2ncc(C(N)=O)c(N[C@H](C)c3ccccc3)n2)ccc1Cl` [Example 109, (R)-2-(4-chloro-3-(2-methoxyacetamido)phenylamino)-4-(1-phenylethylamino)pyrimidine-5-carboxamide], the IC50 against JAK3 fell in the range of 10 to 100 nM; against TYK2, 100 to 1000 nM; on JAK1 it was 100 to 1000 nM; against JAK2 it was 100 to 1000 nM.

On to `CC(=O)Nc1cc(Cl)cc(Nc2ncc(C(N)=O)c(NCc3ccccc3)n2)c1` [Example 260, 2-(3-acetamido-5-chlorophenylamino)-4-(benzylamino)pyrimidine-5-carboxamide], for which the half-inhibitory concentration (IC50) against JAK3 is 10 to 100 nM; at TYK2, 10 to 100 nM; on JAK1 it was more than 1000 nM; at JAK2, 100 to 1000 nM.

Regarding `CC(=O)Nc1cccc(Nc2cc(NCc3cccc(Cl)c3)c(C(N)=O)cn2)c1` [Example 337, 6-(3-acetamidophenylamino)-4-(3-chlorobenzylamino)nicotinamide], the IC50 was in the range of 10 to 100 nM at JAK3, 100 to 1000 nM against TYK2, 100 to 1000 nM at JAK1 and 100 to 1000 nM on JAK2.

Take `NC(=O)c1cnc(Nc2cccc(NC(=O)N3CCCC3)c2)nc1NCc1cccc(Cl)c1` [Example 180, 4-(3-chlorobenzylamino)-2-(3-(pyrrolidine-1-carboxamido)phenylamino)pyrimidine-5-carboxamide]: the IC50 at JAK3 fell in the range of 1 to 10 nM; at TYK2, 10 to 100 nM; on JAK1, 10 to 100 nM; at JAK2, 10 to 100 nM.

For the molecule `CC(=O)Nc1cccc(Nc2ncc(C(N)=O)c(NCc3cc(F)ccc3F)n2)c1` [Example 102, 2-(3-acetamidophenylamino)-4-(2,5-difluorobenzylamino)pyrimidine-5-carboxamide], the IC50 was in the range of 1 to 10 nM on JAK3, 10 to 100 nM against TYK2, 100 to 1000 nM at JAK1 and 10 to 100 nM against JAK2.

As for `C[C@@H](Nc1nc(Nc2ccc(Cl)c(NC(=O)N3CCCCC3)c2)ncc1C(N)=O)c1ccccc1` [Example 205, (R)-2-(4-chloro-3-(piperidine-1-carboxamido)phenylamino)-4-(1-phenylethylamino)pyrimidine-5-carboxamide], the IC50 on JAK3 was 10 to 100 nM; against TYK2, 100 to 1000 nM; on JAK1 it was more than 1000 nM; on JAK2, 100 to 1000 nM.

Consider `C[C@@H](Nc1nc(Nc2cccc(NC(=O)[C@@H]3CCCO3)c2)ncc1C(N)=O)c1ccccc1` [Example 207, 4-((R)-1-phenylethylamino)-2-(3-((S)-tetrahydrofuran-2-carboxamido)phenylamino)pyrimidine-5-carboxamide], for which the IC50 was 1 to 10 nM against JAK3, 10 to 100 nM at TYK2, 100 to 1000 nM on JAK1 and 10 to 100 nM at JAK2.

Take `NC(=O)c1cnc(Nc2ccc(Cl)c(NC(=O)N3CCCC3)c2)nc1NCC1CC1` [Example 174, 2-(4-chloro-3-(pyrrolidine-1-carboxamido)phenylamino)-4-(cyclopropylmethylamino)pyrimidine-5-carboxamide]: the IC50 against JAK3 fell in the range of 10 to 100 nM; on TYK2, 10 to 100 nM; on JAK1, 10 to 100 nM; on JAK2, 100 to 1000 nM.

With `NC(=O)c1cnc(Nc2cccc(NC(=O)N3CCCC3)c2)cc1NCc1ccccc1` [Example 326, 4-(benzylamino)-6-(3-(pyrrolidine-1-carboxamido)phenylamino)nicotinamide], the IC50 was 1 to 10 nM on JAK3, 10 to 100 nM on TYK2, 100 to 1000 nM at JAK1 and 100 to 1000 nM on JAK2.

As to `CC(=O)Nc1cc(Nc2ncc(C(N)=O)c(Nc3cccc4nsnc34)n2)ccc1OCCN(C)C` [Example 230, 2-(3-acetamido-4-(2-(dimethylamino)ethoxy)phenylamino)-4-(benzo[c][1,2,5]thiadiazo-4-ylamino)pyrimidine-5-carboxamide], the IC50 against JAK3 was 1 to 10 nM; at TYK2, 10 to 100 nM; on JAK1, 10 to 100 nM; at JAK2, 1 to 10 nM.

In the case of `C[C@@H](Nc1nc(Nc2cccc(NC(=O)N3CCCC3)c2)ncc1C(N)=O)c1ccccc1` [Example 105, (R)-4-(1-phenylethylamino)-2-(3-(pyrrolidine-1-carboxamido)phenylamino)pyrimidine-5-carboxamide], the IC50 against JAK3 lay in the range of 1 to 10 nM; at TYK2, 10 to 100 nM; on JAK1, 100 to 1000 nM; at JAK2, 10 to 100 nM.

For `NC(=O)c1cnc(Nc2cc(NC(=O)N3CCCC3)ccc2F)nc1NCc1ccccc1` [Example 204, 4-(benzylamino)-2-(2-fluoro-5-(pyrrolidine-1-carboxamido)phenylamino)pyrimidine-5-carboxamide], the IC50 at JAK3, at TYK2, at JAK1 and at JAK2 was 100 to 1000 nM each time.

Consider `CC[C@@H](C)Nc1nc(Nc2cccc(NC(C)=O)c2)ncc1C(N)=O` [Example 238, (R)-2-(3-acetamidophenylamino)-4-(sec-butylamino)pyrimidine-5-carboxamide], for which the IC50 against JAK3 is less than 1 nM; at TYK2, 1 to 10 nM; at JAK1, 1 to 10 nM; against JAK2 it was 1 to 10 nM.

`CC(=O)Nc1cccc(Nc2ncc(C(N)=O)c(NCc3ccc(F)cc3)n2)c1` [Example 103, 2-(3-acetamidophenylamino)-4-(4-fluorobenzylamino)pyrimidine-5-carboxamide]: the IC50 at JAK3 fell in the range of 10 to 100 nM; at TYK2, 10 to 100 nM; on JAK1, 100 to 1000 nM; at JAK2 it was 10 to 100 nM.

On to `COCC(=O)N(C)c1cccc(Nc2ncc(C(N)=O)c(NCC3CC3)n2)c1` [Example 125, 4-(cyclopropylmethylamino)-2-(3-(2-methoxy-N-methylacetamido)phenylamino)pyrimidine-5-carboxamide], for which the IC50 at JAK3, on TYK2, on JAK1 and against JAK2 was 10 to 100 nM throughout.
